Literature values, collected in publication PMC4258163 (Bioorganic & medicinal chemistry letters, 2014).

What was measured:
animal model of anxiety = settings: versus selective FAAH or TRPV1 inhibitors
[1] = systemic administration, mice

Row | Compound | excess of anandamide in the blood of patients (osteoarthritis pain; patients treated with the inhibitor) | Efficacy in treating osteoarthritis pain (osteoarthritis pain; phase II clinical trial, compared with naproxen) | Effectiveness in an animal model of anxiety (animal model of anxiety) | Hyperthermia [1]
1 | O=C(Nc1cccnn1)N1CCC(=Cc2cccc(Oc3ccc(C(F)(F)F)cn3)c2)CC1 [PF-04457845] | greater than 10 fold | lack of efficacy | – | –
2 | CCCCC/C=C\C/C=C\C/C=C\C/C=C\CCCC(=O)NCCc1c[nH]c2ccc(O)cc12 [AA-5-HT, N-arachidonoyl serotonin] | – | – | more effective | did not cause hyperthermia
